Assay results published in patent publication US7585867B2, “Substituted thiazolo[4,5-d]pyrimidin-2(3H)-one” (AstraZeneca AB, priority 2002, dated 2009).

Tests used:
[1] = molecular target: T1, CXCR2 receptor in human neutrophils (Homo sapiens, UniProt P25025); assay: Intracellular calcium mobilisation assay (GROα, fluo-3, FLIPR); assay type: cell-based; conditions: A50 concentration of GROα, fluo-3 fluorescence
T1 construct: Human nutrophils were prepared from EDTA-treated peripheral blood; endogenous in cells; host or cells: human neutrophils from peripheral blood
T1 sequence (P25025 1-360): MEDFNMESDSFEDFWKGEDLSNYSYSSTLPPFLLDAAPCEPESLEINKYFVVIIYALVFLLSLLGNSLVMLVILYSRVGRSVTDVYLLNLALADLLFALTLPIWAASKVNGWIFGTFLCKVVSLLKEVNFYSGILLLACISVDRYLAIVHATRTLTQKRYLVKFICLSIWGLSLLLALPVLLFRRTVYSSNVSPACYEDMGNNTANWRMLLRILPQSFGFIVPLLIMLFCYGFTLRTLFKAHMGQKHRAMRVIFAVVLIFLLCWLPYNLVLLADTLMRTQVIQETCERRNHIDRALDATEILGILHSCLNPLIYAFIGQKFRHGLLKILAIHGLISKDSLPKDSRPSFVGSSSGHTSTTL
Protocol: Intracellular Calcium Mobilisation Assay
Human nutrophils were prepared from EDTA-treated peripheral blood, as previously described (Baly et al. (1997) Methods in Enzymology 287 pp 70-72), in storage buffer [Tyrode's salt solution (137 mM NaCl, 2.7 mM KCl, 0.4 mM NaH2PO4) supplemented with 5.7 mM glucose and 10 mM HEPES (pH 7.4)].
The chemokine GROα (human, recombinant) was purchased from R&D Systems (Abingdon, U.K.). All other chemicals were of analytical grade. Changes in intracellular free calcium were measured fluorometrically by loading neutrophils with the calcium sensitive fluorescent dye, fluo-3, as described previously (Merritt et al. (1990) Biochem. J. 269, pp513-519). Cells were loaded for 1 hour at 37° C. in loading buffer (storage buffer with 0.1% (w/v) gelatin) containing 5 μM fluo-3 AM ester, washed with loading buffer and then resuspended in Tyrode's salt solution supplemented with 5.7 mM glucose, 0.1% (w/v) bovine serum albumin (BSA), 1.8 mM CaCl2 and 1 mM MgCl2. […]
A compound of formula (I) according to the Examples was pre-dissolved in DMSO and added to a final concentration of 0.1% (v/v) DMSO. Assays were initiated by the addition of an A50 concentration of GROα and the transient increase in fluo-3 fluorescence (λEx=490 nm and λEm=520 nm) monitored using a FLIPR (Fluorometric Imaging Plate Reader, Molecular Devices, Sunnyvale, U.S.A.). […]

[2] = molecular target: T2, hrCXCR2 (Homo sapiens, UniProt P25025); assay: Ligand binding assay ([125I]IL-8, HEK 293 membranes); conditions: displacement of ~50 pM [125I]IL-8 from membranes of HEK 293 cells expressing hrCXCR2, 1.5 hours at room temperature
T2 construct: expressed in transfected cells; host or cells: HEK 293 cells (ECACC No. 85120602), membrane preparation
T2 sequence (P25025 1-360): T1 sequence (P25025 1-360)
Excerpt: [^125I]IL-8 (human, recombinant) was purchased from Amersham, U.K. with a specific activity of 2,000 Ci/mmol. All other chemicals were of analytical grade. High levels of hrCXCR2 were expressed in HEK 293 cells (human embryo kidney 293 cells ECACC No. 85120602) (Lee et al. (1992) J. Biol. Chem. 267 pp 16283-16291). hrCXC2 cDNA was amplified and cloned from human neutrophil mRNA. The DNA was cloned into PCRScript (Stratagene) and clones were identified using DNA. The coding sequence was sub-cloned into the eukaryotic expression vector RcCMV (Invitrogen). Plasmid DNA was prepared using Quiagen Megaprep 2500 and transfected into HEK 293 cells using Lipofectamine reagent (Gibco BRL). Cells of the highest expressing clone were harvested in phosphate-buffered saline containing 0.2%(w/v) ethylenediaminetetraacetic acid (EDTA) and centrifuged (200 g, 5 min.). The cell pellet was resuspended in ice cold homogenisation buffer [10 mM HEPES (pH 7.4), 1 mM dithiothreitol, 1 mM EDTA and a panel of protease inhibitors (1 mM phenyl methyl sulphonyl fluoride, 2 μg/ml soybean trypsin inhibitor, 3 mM benzamidine, 0.5 μg/ml leupeptin and 100 μg/ml bacitracin)] and the cells left to swell for 10 minutes. […] The backing plate was removed from the MultiScreen plate assembly, the filters dried at room temperature, punched out and then counted on a Cobra γ-counter.

Row | melting point | antagonism of GROα-induced intracellular calcium increase [1] | IC50 [2] [µM] | Compound
1 | 238 °C (dec.) |  |  | CC(CO)(CO)Nc1nc(SCc2cccc(F)c2F)nc2[nH]c(=O)sc12.[Na]
2 | 230 to 233 °C | antagonist | < 10 | CC(CO)(CO)Nc1nc(SCc2cccc(F)c2F)nc2[nH]c(=O)sc12 [compound of formula (I), 5-[[(2,3-Difluorophenyl)methyl]thio]-7-[[2-hydroxy-1-(hydroxymethyl) 1 methylethyl]amino]-thiazolo[4,5-d]pyrimidin-2(3H)-one]
